From the supplement of paper PMC10307832

Compound: COCC[n+]1c2c(n(Cc3cnccn3)c1C)C(=O)c1ccccc1C2=O [YM155] + N=C(N)NC(=N)NCCc1ccccc1 [Phenformin] (partner 250 µM)
Assay: relative viability (nuclei count vs DMSO), 5 days (fraction); higher = more cells survive
Details: first compound 0.002 µM
Procedure, shortened: (§1)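 Relative viability was taken as the ratio of nuclei in treated wells to nuclei in vehicle wells. Lung cancer cell lines in 1536-well plates received compounds by pin tool one day after seeding, either one drug alone or a fixed anchor-drug dose plus five library-drug doses (not always all listed) in √10 steps. Nuclei were counted on 4× images after 5 days of treatment, and values are medians of duplicate plates.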

Row | Cell Line | relative viability
1 | EKVX | 0.239
2 | EPLC-272H | 0.347
3 | NCI-H520 | 0.58
4 | NCI-H1563 | 0.632
5 | NCI-H650 | 0.417
6 | RERF-LC-KJ | 0.386
7 | HCC-827 | 0.419
8 | NCI-H2087 | 0.476
9 | SK-MES-1 | 0.584
10 | NCI-H1651 | 0.316
11 | UMC-11 | 0.3
12 | NCI-H1355 | 0.442
13 | H3255 | 0.335
14 | NCI-H647 | 0.49
15 | NCI-H1623 | 0.599
16 | LCLC-97TM1 | 0.387
17 | LXF-289 | 0.522
18 | LU99A | 0.856

Row | Cell Line | relative viability
19 | NCI-H2023 | 0.361
20 | NCI-H2228 | 0.304
21 | NCI-H1437 | 0.285
22 | NCI-H1395 | 0.419
23 | NCI-H2009 | 0.464
24 | HCC-366 | 0.592
25 | NCI-H1915 | 0.351
26 | NCI-H2347 | 0.489
27 | LCLC-103H | 0.359
28 | ABC-1 | 0.271
29 | NCI-H1734 | 0.43
30 | HCC-78 | 0.638
31 | COR-L 105 | 0.343
32 | HCC-15 | 0.465
33 | HARA | 0.476
34 | A549 | 0.17
35 | NCI-H596 | 0.65

Same assay, conditions: first compound 0.006325 µM

Row | Cell Line | relative viability
36 | EKVX | 0.218
37 | EPLC-272H | 0.317
38 | NCI-H520 | 0.535
39 | NCI-H1563 | 0.682
40 | NCI-H650 | 0.477
41 | RERF-LC-KJ | 0.432
42 | HCC-827 | 0.404
43 | NCI-H2087 | 0.448
44 | SK-MES-1 | 0.695
45 | NCI-H1651 | 0.366
46 | UMC-11 | 0.355
47 | NCI-H1355 | 0.46
48 | H3255 | 0.336
49 | NCI-H647 | 0.636
50 | NCI-H1623 | 0.6
51 | LCLC-97TM1 | 0.432
52 | LXF-289 | 0.524
53 | LU99A | 0.883

Row | Cell Line | relative viability
54 | NCI-H2023 | 0.403
55 | NCI-H2228 | 0.272
56 | NCI-H1437 | 0.308
57 | NCI-H1395 | 0.465
58 | NCI-H2009 | 0.489
59 | HCC-366 | 0.55
60 | NCI-H1915 | 0.357
61 | NCI-H2347 | 0.395
62 | LCLC-103H | 0.314
63 | ABC-1 | 0.239
64 | NCI-H1734 | 0.451
65 | HCC-78 | 0.73
66 | COR-L 105 | 0.462
67 | HCC-15 | 0.464
68 | HARA | 0.444
69 | A549 | 0.0769
70 | NCI-H596 | 0.718

Same assay, conditions: first compound 0.02 µM

Row | Cell Line | relative viability
71 | EKVX | 0.24
72 | EPLC-272H | 0.286
73 | NCI-H520 | 0.636
74 | NCI-H1563 | 0.63
75 | NCI-H650 | 0.523
76 | RERF-LC-KJ | 0.462
77 | HCC-827 | 0.375
78 | NCI-H2087 | 0.498
79 | SK-MES-1 | 0.575
80 | NCI-H1651 | 0.326
81 | UMC-11 | 0.363
82 | NCI-H1355 | 0.493
83 | H3255 | 0.376
84 | NCI-H1792 | 0.285
85 | NCI-H647 | 0.587
86 | NCI-H1623 | 0.643
87 | LCLC-97TM1 | 0.407
88 | LXF-289 | 0.506

Row | Cell Line | relative viability
89 | LU99A | 0.822
90 | NCI-H2023 | 0.411
91 | NCI-H2228 | 0.375
92 | NCI-H1437 | 0.257
93 | NCI-H1395 | 0.453
94 | NCI-H2009 | 0.46
95 | HCC-366 | 0.628
96 | NCI-H1915 | 0.368
97 | NCI-H2347 | 0.582
98 | LCLC-103H | 0.347
99 | ABC-1 | 0.233
100 | NCI-H1734 | 0.404
101 | HCC-78 | 0.779
102 | COR-L 105 | 0.508
103 | HCC-15 | 0.464
104 | HARA | 0.48
105 | A549 | 0.177
106 | NCI-H596 | 0.861

Same assay, conditions: first compound 0.06325 µM

Row | Cell Line | relative viability
107 | EKVX | 0.231
108 | EPLC-272H | 0.304
109 | NCI-H520 | 0.604
110 | NCI-H1563 | 0.65
111 | NCI-H650 | 0.447
112 | RERF-LC-KJ | 0.463
113 | HCC-827 | 0.473
114 | NCI-H2087 | 0.495
115 | SK-MES-1 | 0.256
116 | NCI-H1651 | 0.377
117 | UMC-11 | 0.328
118 | NCI-H1355 | 0.499
119 | H3255 | 0.374
120 | NCI-H1792 | 0.523
121 | NCI-H647 | 0.491
122 | NCI-H1623 | 0.604
123 | LCLC-97TM1 | 0.447
124 | LXF-289 | 0.532

Row | Cell Line | relative viability
125 | LU99A | 0.847
126 | NCI-H2023 | 0.422
127 | NCI-H2228 | 0.338
128 | NCI-H1437 | 0.324
129 | NCI-H1395 | 0.481
130 | NCI-H2009 | 0.326
131 | HCC-366 | 0.597
132 | NCI-H1915 | 0.355
133 | NCI-H2347 | 0.448
134 | LCLC-103H | 0.323
135 | ABC-1 | 0.207
136 | NCI-H1734 | 0.509
137 | HCC-78 | 0.76
138 | COR-L 105 | 0.581
139 | HCC-15 | 0.494
140 | HARA | 0.425
141 | A549 | 0.137
142 | NCI-H596 | 0.741

Compound: CC(C)(C)c1cc(NC(=O)Nc2ccc(-c3cn4c(n3)sc3cc(OCCN5CCOCC5)ccc34)cc2)no1 [Quizartinib] + COc1cccc2cc(-c3nc([C@H]4CC[C@H](C(=O)O)CC4)n4ncnc(N)c34)[nH]c12 [OSI-027] (partner 0.5 µM)
Assay: as above
Details: first compound 0.001 µM
Procedure, shortened: as §1

Row | Cell Line | relative viability
143 | EKVX | 0.43
144 | EPLC-272H | 0.249
145 | NCI-H520 | 0.245
146 | NCI-H1563 | 0.734
147 | NCI-H650 | 0.527
148 | RERF-LC-KJ | 0.536
149 | HCC-827 | 0.749
150 | SK-MES-1 | 0.538
151 | NCI-H1651 | 0.672
152 | NCI-H1355 | 0.361
153 | H3255 | 0.502
154 | NCI-H647 | 0.627
155 | NCI-H1623 | 0.457
156 | LCLC-97TM1 | 0.567
157 | LXF-289 | 0.743
158 | LU99A | 0.282
